Data taken from patent publication US20240217997A1 (priority 2021, published 2024).
Converted amounts (≈) assume the structure as drawn. Read-outs that look alike come from different tables or passages of the source.

Experiments:
[1] = biological target: P. falciparum DXR (Plasmodium falciparum, UniProt Q8IKG4); details: cited from earlier work
[2] = test system: Plasmodium falciparum; assay: Plasmodium falciparum minimum inhibitory concentration (MIC), Table 4; type: cell-based
[3] = test system: Mycobacterium tuberculosis; assay: microbe, parasite or virus in culture

P. falciparum DXR, sequence (Q8IKG4 73-488): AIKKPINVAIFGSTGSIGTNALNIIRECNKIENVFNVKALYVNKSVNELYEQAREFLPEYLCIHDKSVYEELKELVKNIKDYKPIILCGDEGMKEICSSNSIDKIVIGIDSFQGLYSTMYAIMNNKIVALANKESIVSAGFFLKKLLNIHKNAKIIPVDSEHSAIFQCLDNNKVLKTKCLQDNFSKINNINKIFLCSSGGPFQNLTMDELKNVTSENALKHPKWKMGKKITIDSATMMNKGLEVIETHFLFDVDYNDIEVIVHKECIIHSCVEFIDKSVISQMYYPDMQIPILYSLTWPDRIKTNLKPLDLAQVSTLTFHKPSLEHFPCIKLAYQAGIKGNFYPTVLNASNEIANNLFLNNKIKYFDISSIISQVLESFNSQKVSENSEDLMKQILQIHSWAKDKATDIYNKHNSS

Question: For CC(=O)N(O)CCCP(=O)(O)O [FR900098], which IC50 [1] is on record?
Answer: 24 nM

Question: Which “MIC, Mean” value ([2]; Mean of Runs 1-3) does the source give for O=CN(O)CCCP(=O)(O)O [Fosmidomycin] here?
Answer: 0.9075 µg/mL (≈ 4.96 µM)

Question: What about the “MIC, Run 1” value ([2]; Run 1) of the same compound?
Answer: 1.391 µg/mL (≈ 7.6 µM)

Question: And the “MIC, Run 2” value ([2]; Run 2)?
Answer: 0.7607 µg/mL (≈ 4.15 µM)

Question: And the “MIC, Run 3” value ([2]; Run 3)?
Answer: 0.5708 µg/mL (≈ 3.12 µM)

Question: What does the source list for NNC(=O)c1ccncc1 [Isoniazid]?
Answer: MIC ([3]; 168 h, read-out: 1-week MIC 7H9/glucose/BSA/Tx): 0.02 µg/mL (≈ 0.146 µM); MIC ([3]; 168 h, read-out: 1-week MIC 7H9/glucose/casitone/Tx): 0.02 µg/mL (≈ 0.146 µM); MIC ([3]; 168 h, read-out: 1-week MIC 7H9/glycerol/glucose/BSA/Tween): 0.03 µg/mL (≈ 0.219 µM); MIC ([3]; 336 h, read-out: 2-week MIC 7H9/glucose/BSA/Tx): 0.03 µg/mL (≈ 0.219 µM); MIC ([3]; 336 h, read-out: 2-week MIC 7H9/glucose/casitone/Tx): 0.02 µg/mL (≈ 0.146 µM); MIC ([3]; 336 h, read-out: 2-week MIC 7H9/glycerol/glucose/BSA/Tween): 0.039 µg/mL (≈ 0.284 µM)
